Assay results from patent US5179085A, “N-substituted α-amino acids and derivatives thereof having pharmaceutical activity” (Warner-Lambert Company, priority 1991, dated 1993).
Counter-ions that a name gives are not always drawn.

Tests used:
NMDA receptors = test: [3H]CPP NMDA receptor binding assay; conditions: for IC50: [3H]CPP displacement; for % Inhibition (10^-4 M): at 10^-4 M
Experimental: (§1) Thus, the compounds of Formula I were tested in vitro for their ability to block NMDA receptors in a binding assay with [^3 H]3-(2-carboxypiperazin-4-yl)propyl-1-phosphonic acid ([^3 H]CPP) carried out essentially by a method previously described by Murphy, D. E., et al, Journal of Pharmacology and Experimental Therapeutics, Volume 240, pp 778-784 (1987); and for their ability to inhibit glutamate-induced [Ca^++ ] influx (GCI) carried out essentially by a method previously described by Marcoux, F. W., et al, "Sigma and Phencyclidine like Compounds as Molecular Probes in Biology", pp 735-746, Domino, E. F. and J. N. Kamenka, eds., NPP Books, Ann Arbor, Michigan, 1988 and Choi, D. W., et al, Journal of Neuroscience, Volume 8, pp 185-196 (1988). The aforementioned lest methods are incorporated herein by reference.

[1] = system: glutamate-induced [Ca^++ ] influx; test: Inhibition of glutamate-induced [Ca++] influx (GCI); format: cell-based
Experimental: as §1

| SMILES | IC50 (NMDA receptors) | IC50 [1] | % Inhibition (10^-4 M) (NMDA receptors) |
| --- | --- | --- | --- |
| O=C(O)CNCc1ccc(CP(=O)(O)O)cc1 [Example 8h, N-[[4-(Phosphonomethyl)phenyl]methyl]glycine, monohydrochloride] | 5.2 µM | 120 µM |  |
| O=C(O)CNCc1cccc(CP(=O)(O)O)c1 [Example 8d, N-[[3-(Phosphonomethyl)phenyl]methyl]glycine, hydrochloride] | 2.24 µM | 79 µM |  |
| O=C(O)CNCCC=CP(=O)(O)O (mixture of isomers) [Example 10a, N-[4-Phosphono-3-butenyl)glycine, diammonium salt. (Mixture of E and Z isomers)] | 2.45 µM |  |  |
| O=C(O)CNCC=CCP(=O)(O)O [Example 8o, N-(4-Phosphono-2-butenyl)glycine, monohydrochloride] | 1.2 µM | 18 µM |  |
| O=C(O)CNCCc1cccc(CP(=O)(O)O)c1 [Example 8g, N-[2-[3-(Phosphonomethyl)phenyl]ethyl] glycine, monohydrochloride] |  |  | 86% |
| CC(NCC=CCP(=O)(O)O)C(=O)O.Cl (racemic) [Example 8p, N-(4-Phosphono-2-butenyl)-DL-alanine, monohydrochloride] |  |  | 58% |
